Patent publication US20050239656A1, “Pyridine compounds or salts thereof and herbicides containing the same” (priority 2002, published 2005)

How the values were obtained:
rice [1] = experiment: Test Example 2: soil surface treatment, upland pot test; format: in vivo, Oryza sativa L.; conditions: observed 20th to 28th day
How it was run: (§1)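 Soil surface treated 1 day post-sowing. Formulation: WP or EC, predetermined a.i., diluted to 1,500 L/ha. Pot size 1/170,000 ha, upland soil. Readout: visual % control, 0 = non-treated, 100 = dead, days 20–28.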

barnyardgrass [2] = experiment: as above; format: in vivo, Echinochloa crus-galli L.; conditions: observed 20th to 28th day
How it was run: as §1

green foxtail [3] = experiment: as above; format: in vivo, Setaria viridis L.; conditions: observed 20th to 28th day
How it was run: as §1

barnyardgrass [4] = experiment: Test Example 3: paddy pot test, application under submerged conditions; format: in vivo, Echinochloa crus-galli L.; conditions: active ingredient 500 g/ha; submerged application at 0.5 leaf stage; visually observed 14 days after application; 0 = non-treated, 100 = complete kill
How it was run: (§2)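 Visual rating of growth control (0% equals untreated, 100% complete kill) made 14 days after treatment. Compound, formulated as wettable powder or emulsifiable concentrate and diluted in water, was pipetted under submerged conditions at predetermined active-ingredient doses once weeds reached 0.5-leaf (barnyardgrass, bulrush) or primary-leaf (wapato, from tubers) stage. Pots of greenhouse paddy soil held 3–4 cm flooding.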

green foxtail [5] = experiment: Test Example 1: foliage treatment, upland pot test; format: in vivo, Setaria viridis L.; conditions: observed 18th to 23rd day, 0 = non-treated, 100 = complete kill
crabgrass [6] = experiment: Test Example 2: soil surface treatment, upland pot test; format: in vivo, Digitaria sanguinalis L.; conditions: observed 20th to 28th day
How it was run: as §1

wheat [7] = experiment: Test Example 1: foliage treatment, upland pot test; format: in vivo, Triticum spp.; conditions: crop, observed 18th to 23rd day, 0 = non-treated, 100 = complete kill
Text: Upland field soil was put into a 1/170,000 ha pot, and seed of various plants were sown. Then, when the plants reached predetermined leaf stages ((1) barnyardgrass: 1.3 to 2.8 leaf stages, (2) crabgrass: 1.0 to 2.8 leaf stages, (3) green foxtail: 1.3 to 2.6 leaf stages, (4) redroot pigweed: 0.1 to 1.2 leaf stages, (5) prickly sida: 0.1 to 1.2 leaf stages, (6) velvetleaf: 0.1 to 1.2 leaf stages, (7) tall morningglory: 0.1 to 1.5 leaf stages, (8) rice: 1.2 to 2.6 leaf stages, (9) wheat: 1.3 to 2.4 leaf stages, (10) corn, 2.1 to 3.2 leaf stages, (11) soybean: 0.1 to 0.4 leaf stage), a wettable powder or emulsifiable concentrate having the compound of the present invention formulated in accordance with a usual formulation method, was weighed so that the active ingredient would be a predetermined amount, and diluted with water in an amount of 500 L/ha. To the diluted solution, 0.1% (v/v) of agricultural spreader was added. The herbicide thus adjusted was applied by a small size sprayer for foliage treatment. On the 18th to 23rd days after the application of the herbicide, the growth of the respective plants was visually observed, and the herbicidal effects were evaluated by the growth controlling degrees (%) ranging from 0 (equivalent to the non-treated plot) to 100 (complete kill), whereby the results shown in Table 3, were obtained.

rice (var. Nihonbare) = experiment: Test Example 3: paddy pot test, transplanted rice; format: in vivo, Oryza sativa L.; conditions: active ingredient 500 g/ha, applied 4th day after transplantation, visually observed 21st day after application, 0 = non-treated, 100 = complete kill
How it was run: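 Visual crop-injury rating (0 = as untreated, 100 = complete kill, %) taken 21 days post-application. Treatment: formulated compound, water-diluted, pipetted into 3–4 cm flood water at a preset active-ingredient dose, 4 days after transplanting 2-leaf Nihonbare rice 3 cm deep in puddled paddy soil.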

prickly sida [8] = experiment: Test Example 2: soil surface treatment, upland pot test; format: in vivo, Sida spinosa L.; conditions: observed 20th to 28th day
How it was run: as §1

redroot pigweed [9] = experiment: as above; format: in vivo, Amaranthus retroflexus L.; conditions: observed 20th to 28th day
How it was run: as §1

soybean [10] = experiment: Test Example 1: foliage treatment, upland pot test; format: in vivo, Glycine max Merr.; conditions: crop, observed 18th to 23rd day, 0 = non-treated, 100 = complete kill
How it was run: (§3)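 Foliage tx, upland soil pots; stages: wheat 1.3-2.4 L, rice 1.2-2.6 L, soybean 0.1-0.4 L, barnyardgrass 1.3-2.8 L. WP/EC diluted, 500 L/ha water + 0.1% (v/v) agricultural spreader, small sprayer. Visual rating d18–23, 0–100% control.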

velvetleaf [11] = experiment: Test Example 2: soil surface treatment, upland pot test; format: in vivo, Abutilon theophrasti MEDIC.; conditions: observed 20th to 28th day
How it was run: as §1

redroot pigweed [12] = experiment: Test Example 1: foliage treatment, upland pot test; format: in vivo, Amaranthus retroflexus L.; conditions: observed 18th to 23rd day, 0 = non-treated, 100 = complete kill
crabgrass [13] = experiment: Test Example 1: foliage treatment, upland pot test; format: in vivo, Digitaria sanguinalis L.; conditions: observed 18th to 23rd day, 0 = non-treated, 100 = complete kill
barnyardgrass [14] = experiment: Test Example 1: foliage treatment, upland pot test; format: in vivo, Echinochloa crus-galli L.; conditions: observed 18th to 23rd day, 0 = non-treated, 100 = complete kill
How it was run: as §3

soybean [15] = experiment: Test Example 2: soil surface treatment, upland pot test; format: in vivo, Glycine max Merr.; conditions: observed 20th to 28th day
How it was run: as §1

rice [16] = experiment: Test Example 1: foliage treatment, upland pot test; format: in vivo, Oryza sativa L.; conditions: crop, observed 18th to 23rd day, 0 = non-treated, 100 = complete kill
How it was run: as §3

corn [17] = experiment: Test Example 1: foliage treatment, upland pot test; format: in vivo, Zea mays L.; conditions: crop, observed 18th to 23rd day, 0 = non-treated, 100 = complete kill
How it was run: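 In this upland pot foliage test, corn plants at 2.1 to 3.2 leaf stages were sprayed by a small size sprayer. The spray was a conventionally formulated wettable powder or emulsifiable concentrate weighed to a set active ingredient amount, diluted in water at 500 L/ha, plus 0.1% (v/v) agricultural spreader. Visual assessment on days 18 to 23 gave growth controlling degree (%), where 0 equals untreated and 100 means complete kill.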

prickly sida [18] = experiment: Test Example 1: foliage treatment, upland pot test; format: in vivo, Sida spinosa L.; conditions: observed 18th to 23rd day, 0 = non-treated, 100 = complete kill
japanese ribbon wapato = experiment: Test Example 3: paddy pot test, application under submerged conditions; format: in vivo, Sagittaria pygniaea; conditions: active ingredient 500 g/ha; submerged application at primary leaf stage; visually observed 14 days after application; 0 = non-treated, 100 = complete kill
How it was run: as §2

velvetleaf [19] = experiment: Test Example 1: foliage treatment, upland pot test; format: in vivo, Abutilon theophrasti MEDIC.; conditions: observed 18th to 23rd day, 0 = non-treated, 100 = complete kill
corn [20] = experiment: Test Example 2: soil surface treatment, upland pot test; format: in vivo, Zea mays L.; conditions: observed 20th to 28th day
How it was run: as §1

japanese bulrush = experiment: Test Example 3: paddy pot test, application under submerged conditions; format: in vivo, Scirpus juncoides; conditions: active ingredient 500 g/ha; submerged application at 0.5 leaf stage; visually observed 14 days after application; 0 = non-treated, 100 = complete kill
How it was run: as §2

wheat [21] = experiment: Test Example 2: soil surface treatment, upland pot test; format: in vivo, Triticum spp.; conditions: active ingredient 1000 g/ha, observed 20th to 28th day
How it was run: as §1

Structure (SMILES)	Growth controlling degree (%) Rice (rice [1]; active ingredient 500 g/ha)	Growth controlling degree (%) Barnyardgrass (barnyardgrass [2]; active ingredient 500 g/ha)	Growth controlling degree (%) Green foxtail (green foxtail [3]; active ingredient 500 g/ha)	Growth controlling degree (%) Barnyardgrass (barnyardgrass [4])	Growth controlling degree (%) Green foxtail (green foxtail [5]; active ingredient 500 g/ha)	Growth controlling degree (%) Crabgrass (crabgrass [6]; active ingredient 500 g/ha)	Growth controlling degree (%) wheat (wheat [7]; active ingredient 500 g/ha)	Growth controlling degree (%) Rice (rice (var. Nihonbare))	Growth controlling degree (%) Prickly sida (prickly sida [8]; active ingredient 500 g/ha)	Growth controlling degree (%) Redroot pigweed (redroot pigweed [9]; active ingredient 500 g/ha)	Growth controlling degree (%) Soybean (soybean [10]; active ingredient 500 g/ha)	Growth controlling degree (%) Velvetleaf (velvetleaf [11]; active ingredient 500 g/ha)	Growth controlling degree (%) Redroot pigweed (redroot pigweed [12]; active ingredient 500 g/ha)	Growth controlling degree (%) Crabgrass (crabgrass [13]; active ingredient 500 g/ha)	Growth controlling degree (%) Barnyardgrass (barnyardgrass [14]; active ingredient 500 g/ha)	Growth controlling degree (%) Soyabean (soybean [15]; active ingredient 500 g/ha)	Growth controlling degree (%) Rice (rice [16]; active ingredient 500 g/ha)	Growth controlling degree (%) Corn (corn [17]; active ingredient 500 g/ha)	Growth controlling degree (%) Prickly sida (prickly sida [18]; active ingredient 500 g/ha)	Growth controlling degree (%) Japanese bulrush (japanese bulrush)	also measured
CCCC(=O)N(C)C(c1cnccc1C(F)(F)F)C(C)C (stereo not shown) [I-189, N-methyl-N-[2-methyl-1-(4-trifluoromethylpyridin-3-yl)propyl]butanamide]	100%	100%	100%	100%	90%	100%	70%	95%	90%	100%	80%	90%	80%	98%	90%	95%	80%	90%	85%	98%	Growth controlling degree (%) Japanese ribbon wapato (japanese ribbon wapato): 95%; Growth controlling degree (%) Velvetleaf (velvetleaf [19]; active ingredient 500 g/ha): 70%; Growth controlling degree (%) Corn (corn [20]; active ingredient 500 g/ha): 50%
COc1ccc(C=CC(=O)N(C)C(c2cnccc2C(F)(F)F)C(C)C)cc1 (stereo not shown) [I-182]	50%	90%	95%	100%	50%	100%	10%	0%	10%	30%	70%	50%	50%	80%	80%	10%	20%	60%	70%	98%	Growth controlling degree (%) Japanese ribbon wapato (japanese ribbon wapato): 80%; Growth controlling degree (%) Velvetleaf (velvetleaf [19]; active ingredient 500 g/ha): 50%; Growth controlling degree (%) Corn (corn [20]; active ingredient 500 g/ha): 10%
CC(C)C(c1cnccc1C(F)(F)F)N(C)C(=O)C=Cc1ccc(C(F)(F)F)cc1 (stereo not shown) [I-186]	20%	40%	100%	98%	40%	98%	60%	10%	10%	40%	70%	0%	50%	60%	50%	0%	10%	50%	60%	95%	Growth controlling degree (%) Velvetleaf (velvetleaf [19]; active ingredient 500 g/ha): 60%; Growth controlling degree (%) Corn (corn [20]; active ingredient 500 g/ha): 30%
CC(C)C(c1cnccc1C(F)(F)F)N(C)C(=O)C=Cc1cccc2ccccc12 (stereo not shown) [I-187]				100%				0%												10%	Growth controlling degree (%) Green foxtail (green foxtail [5]; active ingredient 1000 g/ha): 60%; Growth controlling degree (%) wheat (wheat [7]; active ingredient 1000 g/ha): 10%; Growth controlling degree (%) Soybean (soybean [10]; active ingredient 1000 g/ha): 60%; Growth controlling degree (%) Redroot pigweed (redroot pigweed [12]; active ingredient 1000 g/ha): 80%; Growth controlling degree (%) Crabgrass (crabgrass [13]; active ingredient 1000 g/ha): 95%; Growth controlling degree (%) Barnyardgrass (barnyardgrass [14]; active ingredient 1000 g/ha): 60%; Growth controlling degree (%) Rice (rice [16]; active ingredient 1000 g/ha): 30%; Growth controlling degree (%) Corn (corn [17]; active ingredient 1000 g/ha): 80%; Growth controlling degree (%) Prickly sida (prickly sida [18]; active ingredient 1000 g/ha): 90%; Growth controlling degree (%) Japanese ribbon wapato (japanese ribbon wapato): 20%; Growth controlling degree (%) Velvetleaf (velvetleaf [19]; active ingredient 1000 g/ha): 40%
CC(C(=O)NC(c1cnccc1C(F)(F)F)C(C)C)c1ccccc1 (stereo not shown) [Compound I-11]				60%				10%												90%	Growth controlling degree (%) Rice (rice [1]; active ingredient 1000 g/ha): 0%; Growth controlling degree (%) Barnyardgrass (barnyardgrass [2]; active ingredient 1000 g/ha, 0 = non-treated, 100 = complete kill): 98%; Growth controlling degree (%) Green foxtail (green foxtail [3]; active ingredient 1000 g/ha): 90%; Growth controlling degree (%) Crabgrass (crabgrass [6]; active ingredient 1000 g/ha): 90%; Growth controlling degree (%) wheat (wheat [21]): 50%; Growth controlling degree (%) Prickly sida (prickly sida [8]; active ingredient 1000 g/ha): 0%; Growth controlling degree (%) Redroot pigweed (redroot pigweed [9]; active ingredient 1000 g/ha): 0%; Growth controlling degree (%) Velvetleaf (velvetleaf [11]; active ingredient 1000 g/ha): 0%; Growth controlling degree (%) Soyabean (soybean [15]; active ingredient 1000 g/ha): 0%; Growth controlling degree (%) Japanese ribbon wapato (japanese ribbon wapato): 30%; Growth controlling degree (%) Corn (corn [20]; active ingredient 1000 g/ha): 10%
CON=Cc1ccc(CC(=O)N(C)C(c2cnccc2C(F)(F)F)C(C)C)cc1 (racemic) [I-122]	20%	98%	100%	98%	60%	100%	0%	10%	50%	60%	80%	30%	70%	95%	80%	10%	10%	80%	80%	100%	Growth controlling degree (%) Velvetleaf (velvetleaf [19]; active ingredient 500 g/ha): 70%; Growth controlling degree (%) Corn (corn [20]; active ingredient 500 g/ha): 10%
